# Results from US7345070B2, “Peroxisome proliferator activated receptor agonists” (Eli Lilly and Company, priority 2000, dated 2008).
# Test system: db/db mice
# Assay: Evaluation of glucose levels in db/db mice
# Format: in vivo
# Conditions: Mus musculus, 168 h, 30 mg/kg oral gavage daily for 7 days, 100% = glucose not different from lean values, read-out: Glucose Normalisation
# Procedure: Five week old male diabetic (db/db) mice [C57BlKs/j-m+/+ Lepr(db), Jackson Laboratory, Bar Harbor, Me.] or lean littermates (db+) were housed 6 per cage (10″×20″×8″ with aspen chip bedding) with food (Purina 5015) and water available at all times. After an acclimation period of 2 weeks, animals were individually identified by ear notches, weighed, and bled via the tail vein for determination of initial glucose levels. Blood was collected (100 μl) from unfasted animals by wrapping each mouse in a towel, cutting the tip of the tail with a scalpel, and milking blood from the tail into a heparinized capillary tube (Fisher) balanced on the edge of the bench. Sample was discharged into a heparinized microtainer with gel separator (VWR) and retained on ice. Plasma was obtained after centrifugation at 4° C. and glucose measured immediately. Remaining plasma was frozen until the completion of the experiment, when glucose and triglycerides were assayed in all samples. Animals were grouped based on initial glucose levels and body weights. Beginning the following morning, mice were dosed daily by oral gavage for 7 days using a 20 gauge, 1½″ curved disposable feeding needle. Treatments were test compounds (30 mg/kg), a positive control agent (30 mg/kg) or vehicle [1% carboxymethylcellulose (w/v)/0.25% Tween80 (w/v); 0.3 ml/mouse]. On day 7, mice were weighed and bled (tail vein) 3 hours after dosing. Twenty-four hours after the 7th dose (i.e., day 8), animals were bled again (tail vein). Samples obtained from conscious animals on days 0, 7 and 8 were assayed for glucose. After the 24 hour bleed, animals were weighed and dosed for the final time. Three hours after dosing on day 8, animals were anesthetized by inhalation of isoflurane and blood obtained via cardiac puncture (0.5-0.7 ml). Whole blood was transferred to serum separator tubes, chilled on ice and permitted to clot. Serum was obtained after centrifugation at 4° C. and frozen until analysis for compound levels. After sacrifice by cervical dislocation, the liver, heart and epididymal fat pads were excised and weighed.
# The animals dosed with vehicle had average triglycerides values of 170-230 mg/dl, which were reduced by the positive PPARγ control (70-120 mg/dl with a mean reduction of 50%). Male db/db mice were hyperglycemic (average glucose of 680-730 mg/dl on the 7th day of treatment), while lean animals had average glucose levels between 190-230 mg/dl.
# Glucose was measured […] using commercially purchased reagents (Sigma #315-500). According to the manufacturers, the procedures were modified from published work (McGowan, M. W., Artiss, J. D., Strandbergh, D. R. & Zak, B. Clin Chem, 20:470-5 (1974) and Keston, A. Specific colorimetric enzymatic analytical reagents for glucose. Abstract of papers 129th Meeting ACS, 31C (1956).); and depend on the release of a mole of hydrogen peroxide for each mole of analyte, coupled with a color reaction first described by Trinder (Trinder, P. Determination of glucose in blood using glucose oxidase with an alternative oxygen acceptor. Ann Clin Biochem, 6:24 (1969)). The absorbance of the dye produced is linearly related to the analyte in the sample. The assays were further modified in our laboratory for use in a 96 well format. Standards (Sigma #339-11, Sigma #16-11, and Sigma #CC0534 for glucose, triglycerides and total cholesterol, respectively), quality control plasma (Sigma # A2034), and samples (2 or 5 μl/well) were measured in duplicate using 200 μl of reagent. An additional aliquot of sample, pipetted to a third well and diluted in 200 μl water, provided a blank for each specimen. Plates were incubated at room temperature (18, 15, and 10 minutes for glucose, triglycerides and total cholesterol, respectively) on a plate shaker (DPC Micormix 5) and absorbance read at 500 nm (glucose and total cholesterol) or 540 nm (triglycerides) on a plate reader (Wallac Victor 1420). […]
row,SMILES,inhibition in vivo at 30 mg/kg [%]
1,"Cc1ccc(OC(C)(Cc2ccc(OCCc3nc(C4CCCCC4)oc3C)cc2)C(=O)O)cc1 (centres unmarked) [Example 41, 3-{4-[2-(2-Cyclohexyl-5-methyl-oxazol-4-yl)-ethoxy]-phenyl}-2-methyl-2-p-tolyloxy-propionic acid]",101
2,"Cc1oc(-c2cccs2)nc1CCOc1ccc(CC(C)(Oc2ccc(F)cc2)C(=O)O)cc1 (centres unmarked) [Example 64, 2-(4-Fluoro-phenoxy)-2-methyl-3-{4-[2-(5-methyl-2-thiophen-2-yl-oxazol-4-yl)-ethoxy]-phenyl}-propionic acid]",97
3,"Cc1cccc(OC(C)(Cc2ccc(OCCc3nc(C4CCCCC4)oc3C)cc2)C(=O)O)c1 (centres unmarked) [Example 62, 3-{4-[2-(2-Cyclohexyl-5-methyl-oxazol-4-yl)-ethoxy]-phenyl}-2-methyl-2-m-tolyloxy-propionic acid]",79
4,"Cc1oc(-c2cccs2)nc1CCOc1ccc(CC(C)(Oc2cccc(C(F)(F)F)c2)C(=O)O)cc1 (centres unmarked) [Example 71, 2-Methyl-3-{4-[2-(5-methyl-2-thiophen-2-yl-oxazol-4-yl)-ethoxy]-phenyl}-2-(3-trifluoromethyl-phenoxy)-propionic acid]",97
5,"Cc1ccc(OC(C)(Cc2ccc(OCCc3nc(C4CCCCC4)oc3C)cc2)C(=O)O)cc1C (centres unmarked) [Example 35, 3-{4-[2-(2-Cyclohexyl-5-methyl-oxazol-4-yl)-ethoxy]-phenyl}-2-(3,4-dimethyl-phenoxy)-2-methyl-propionic acid]",84
6,"Cc1oc(-c2ccccc2)nc1CCCc1ccc(CC(C)(Oc2ccccc2)C(=O)O)s1 (centres unmarked) [Example 91, 2-Methyl-3-{5-[3-(5-methyl-2-phenyl-oxazol-4-yl)-propyl]-thiophen-2-yl}-2-phenoxy-propionic acid]",71
7,"Cc1oc(-c2cccs2)nc1CCOc1ccc(CC(C)(Oc2ccc(C(F)(F)F)cc2)C(=O)O)cc1 (centres unmarked) [Example 51, 2-Methyl-3-{4-[2-(5-methyl-2-thiophen-2-yl-oxazol-4-yl)-ethoxy]-phenyl}-2-(4-trifluoromethyl-phenoxy)-propionic acid]",88
8,"Cc1cccc(OC(C)(Cc2ccc(OCCc3nc(-c4cccs4)oc3C)cc2)C(=O)O)c1 (centres unmarked) [Example 61, 2-Methyl-3-{4-[2-(5-methyl-2-thiophen-2-yl-oxazol-4-yl)-ethoxy]-phenyl}-2-m-tolyloxy-propionic acid]",79
9,"Cc1oc(C2(C)CCCCC2)nc1CCOc1ccc(C[C@](C)(Oc2ccc(F)cc2)C(=O)O)cc1 [Example 67, (S)-2-(4-Fluoro-phenoxy)-2-methyl-3-(4-{2-[5-methyl-2-(1-methyl-cyclohexyl)-oxazol-4-yl]-ethoxy}-phenyl)-propionic acid]",96
10,"Cc1oc(-c2cccc(Br)c2)nc1CCOc1ccc(CC(C)(Oc2ccccc2)C(=O)O)cc1 (centres unmarked) [Example 8, 3-(4-{2-[2-(3-Bromophenyl)-5-methyloxazol-4-yl]ethoxy}phenyl)-2-methyl-2-phenoxypropionic acid]",97
11,"Cc1ccc(OC(C)(Cc2ccc(OCCc3nc(-c4cccs4)oc3C)cc2)C(=O)O)cc1C (centres unmarked) [Example 36, 2-(3,4-Dimethyl-phenoxy)-2-methyl-3-{4-[2-(5-methyl-2-thiophen-2-yl-oxazol-4-yl)-ethoxy]-phenyl}-propionic acid]",92
12,"Cc1oc(C2(C)CCCCC2)nc1CCOc1ccc(CC(C)(Oc2ccccc2)C(=O)O)cc1 (centres unmarked) [Example 9, 2-Methyl-3-(4-{2-[5-methyl-2-(1-methylcyclohexyl)oxazol-4-yl]ethoxy}phenyl)-2-phenoxypropionic acid]",95
13,"Cc1oc(-c2cccs2)nc1CCOc1ccc(CC(C)(Oc2cccc(F)c2)C(=O)O)cc1 (centres unmarked) [Example 22, 2-(3-Fluoro-phenoxy)-2-methyl-3-{4-[2-(5-methyl-2-thiophen-2-yl-oxazol-4-yl)-ethoxy]-phenyl}-propionic acid]",85
14,"Cc1oc(C2CCCCC2)nc1CCOc1ccc(CC(C)(Oc2ccc(F)cc2)C(=O)O)cc1 (centres unmarked) [Example 65, 3-{4-[2-(2-Cyclohexyl-5-methyl-oxazol-4-yl)-ethoxy]-phenyl}-2-(4-fluoro-phenoxy)-2-methyl-propionic acid]",99
15,"Cc1oc(C2CCCCC2)nc1CCOc1ccc(CC(C)(Oc2ccc3c(c2)OCO3)C(=O)O)cc1 (centres unmarked) [Example 80, 2-(Benzo[1,3]dioxol-5-yloxy)-3-{4-[2-(2-cyclohexyl-5-methyl-oxazol-4-yl)-ethoxy]-phenyl}-2-methyl-propionic acid]",83
16,"Cc1oc(C2CCCCC2)nc1CCOc1ccc(CC(C)(Oc2ccc(C(C)(C)C)cc2)C(=O)O)cc1 (centres unmarked) [Example 18, 2-Methyl-3-(4-{2-[5-methyl-2-cyclohexylyl-oxazol-4-yl]-ethoxy}-phenyl)-2-(4-tert-butylphenoxy)-propionic acid]",110
17,"Cc1oc(-c2cccs2)nc1CCOc1ccc(CC(C)(Oc2ccccc2F)C(=O)O)cc1 (centres unmarked) [Example 27, 2-(2-Fluoro-phenoxy)-2-methyl-3-{4-[2-(5-methyl-2-thiophen-2-yl-oxazol-4-yl)-ethoxy]-phenyl}-propionic acid]",86
